Like-named read-outs stand apart in the source and are kept apart here.
Columns and labels:
[1] = mean ± SD
Description: Blood was centrifuged to obtain plasma, the liver and the kidneys were removed and urine was collected. Proteins were precipitated by the addition of acetonitrile (1 μL/μL plasma; 1000 μL for the liver, 200 μL for the kidneys and 0.5 μL/μL urine). All solutions were vortexed and centrifuged. […] Detection was performed by placing the TLC plates on multisensitive phosphor screens (PerkinElmer Life Sciences, Waltham, MA). The screens were scanned at 300 dpi resolution using a PerkinElmer Cyclone® Plus Phosphor Imager (Perkin-Elmer Life Sciences).
(§1) PET imaging was performed under isoflurane/air anesthesia and animals were warmed throughout the experiment while constantly monitoring body temperature and respiratory rate. A microPET Focus220 scanner (Siemens Medical Solutions, Knoxville, TN, USA) was used for PET imaging. […] List mode data were acquired with a timing window of 6 ns and an energy window of 250–750 keV. At the end of the PET scans, blood was collected from the retro-bulbar plexus and animals were killed by cervical dislocation. Blood was centrifuged to obtain plasma and aliquots of blood and plasma were counted for radioactivity in a gamma counter.

[2] = system: cation transporters (OCTs, MATEs); assay: [^11C]Metoclopramide PET in C57BL/6 wild-type mice without and with unlabeled metoclopramide, cimetidine or sulpiride
Description: as §1
Using the medical image data examiner software AMIDE ([33]), the left ventricle of the heart (image-derived arterial blood curve), brain, liver, left kidney and urinary bladder were manually outlined as regions of interest on the PET images, guided by representative magnetic resonance images obtained for a few animals on a 1-T benchtop MR scanner (ICON; Bruker BioSpin GmbH), to derive concentration-time curves expressed in units of percent injected dose per mL (%ID/mL).
The area under the concentration-time curves (AUC, %ID/mL x min) was calculated for each region of interest using Prism 8 Software (GraphPad, La Jolla, CA, USA). […] VE is the y-intercept of the integration plot. CLint,urine was obtained by performing linear regression analysis of a plot of Xint,urine versus AUC0-t,kidney and calculating the slope of the regression line.
The plasma concentration was obtained by multiplying the concentration in the left ventricle of the heart by the plasma/blood radioactivity ratio, determined from the blood sample collected at the end of the PET scan.

mouse MATEs = details: read-out: inhibition constant Ki; cited from earlier work
mouse OCTs = details: read-out: inhibition constant Ki; cited from earlier work
CYP2D6 [3] = details: cimetidine ref 39; metoclopramide ref 10, 11; cited from earlier work
[4] = cited from earlier work
[5] = system: human P-glycoprotein (P-gp/ABCB1); details: cited from earlier work
human OCT1 = details: cited from earlier work
CYP2D6 [6] = system: CYP2D6; design: method as in PMID 21740075; details: orally administered, humans, estimated; cited from earlier work
[7] = single oral or intravenous dose; cited from earlier work
[8] = C57BL/6 female mice, baseline, 15 min after radiotracer injection
[9] = C57BL/6 female mice, cimetidine (150 mg/kg), 15 min
[10] = FVB male/female Slc22a1/2^(−/−) mice, 15 min
[11] = FVB male/female wild-type mice, 15 min
[12] = integration plot 0.4 to 4 min, range over baseline and treatment groups, C57BL/6 mice

## CCN(CC)CCNC(=O)c1cc(Cl)c(N)cc1O[11CH3] [[^11C]metoclopramide]
[1]; [8]
  Percentage of unchanged [^11C]metoclopramide in kidney: 64 ± 6%
  Percentage of unchanged [^11C]metoclopramide in urine: 29 ± 4%
[1]; [9]
  Percentage of unchanged [^11C]metoclopramide in kidney: 96 ± 2 %
  Percentage of unchanged [^11C]metoclopramide in urine: 87 ± 4 %
[1]; C57BL/6 female mice, co-administration of unlabeled metoclopramide (5 mg/kg), 15 min
  Percentage of unchanged [^11C]metoclopramide in kidney: 74 ± 4%
[1]; C57BL/6 female mice, sulpiride (25 mg/kg), 15 min
  Percentage of unchanged [^11C]metoclopramide in urine: 36 ± 5%
[1]; [10]
  Percentage of unchanged [^11C]metoclopramide in kidney: 72 ± 8%
  Percentage of unchanged [^11C]metoclopramide in urine: 48 ± 10%
[1]; [11]
  Percentage of unchanged [^11C]metoclopramide in kidney: 70 ± 20%
  Percentage of unchanged [^11C]metoclopramide in urine: 64 ± 22%
[2]; C57BL/6 wild-type mice, assuming average mouse organ volumes from literature
  Maximum amount of radioactivity in the kidneys: approximately 17 % of the injected dose
[2]; C57BL/6 wild-type mice, i.v. microdose
  Time to maximum concentration of radioactivity in the kidneys and liver: ≤ 5 min
[2]; end of the 90-min PET scan
  Amount of radioactivity excreted into the urinary bladder: approximately 45 % of the injected dose
[2]; [12]
  kuptake,kidney (rate constant for uptake of total radioactivity from blood into the kidneys): 0.5–1 mL/min/mL kidney
  kuptake,liver (rate constant for uptake of total radioactivity from blood into the liver): 0.2–0.6 mL/min/mL liver
[2]; the different investigated treatments vs baseline, wild-type mice
  Decrease of urinary excretion: up to 3.8 fold

## CN/C(=N/CCSCc1nc[nH]c1C)NC#N [cimetidine]
Mouse MATEs
  Ki: 1 to 4 µM
Mouse OCTs
  Ki: 54 to 143 µM
CYP2D6 [3]
  CYP2D6 inhibition: potent

## CCN(CC)CCNC(=O)c1cc(Cl)c(N)cc1OC [metoclopramide]
[4]
  pKa: 9.71
[4]; physiological pH
  Fraction in protonated form: more than 99%
[5]
  Substrate of human P-gp: weak substrate
Human OCT1; human OCT1 transfected cell line
  Share of cellular uptake related to OCT1 activity: 45%
Human OCT1; in vitro
  Substrate of human OCT1: substrate
CYP2D6 [6]
  Share of total clearance accounted for by CYP2D6 metabolism: 44%
[7]
  Fraction of dose excreted unchanged in urine: Approximately 20%
CYP2D6 [3]
  CYP2D6 inhibition: potent inhibitor
